These results are taken from PMC11862611 (RSC Medicinal Chemistry, 2025).

The test system of experiment [1] is L. major promastigotes (FV1) WT. In words: anti-promastigote assay, L. major (resazurin). The format is cell-based. Conditions: Leishmania major; promastigote parasites (Table 1); read-out: L.mj EC50. Here is the method: 4.2.3.1. Anti-promastigote assays
L. major promastigotes (FV1) WT, PX and Δ LCB2 in Schneider’s insect medium (100 μL at 1 × 106 mL−1) were incubated in 96-well plates with compounds in triplicate (amphotericin B and cycloheximide were used as positive controls, and untreated parasites with 1% DMSO as a negative control) at 26 °C for 48 h.
Resazurin Solution (10 μL) was then added and the plate incubated at 26 °C for 4 h prior to measurement using a fluorescence plate reader (555 - 585 nm). EC50 values were calculated using sigmoidal regression analysis (GraphPad Prism). […]
(§1) well-1 in a 24-well plate with round cover slips and incubated for 24 h at 37 °C and 5% CO2. […]

Experiment [2] relates to L. amazonensis promastigotes. The experiment can be described thus: anti-promastigote assay, L. amazonensis (resazurin). The experiment is classed as cell-based. Conditions: Leishmania amazonensis; promastigote parasites (Table 1); read-out: L.amaz EC50. How it is done: 4.2.3.1. Anti-promastigote assays […]
Protocol 1: L. amazonensis promastigotes in Medium 199 (100 μL at 5 × 105 mL−1) were incubated in 96-well plates with compounds in triplicate (amphotericin B was used as a positive control, and untreated parasites with DMSO as a negative control) at 26 °C for 72 h. Resazurin Solution (10 μL) was then added and the plate incubated at 26 °C for 4 h prior to measurement using a fluorescence plate reader (555 - 585 nm). EC50 values were calculated using sigmoidal regression analysis (GraphPad Prism).
Protocol 2: Same procedure as above with the modification of a 48 h incubation time as opposed to 72 h and Leishmania amazonensis (MHOM/Br/75/JOSEFA) in Schneider’s insect medium in the place of Leishmania amazonensis (MHOM/Br/75/JOSEFA) in Medium 199. […]
as §1

The target of another experiment is T1, LmjIPCS (Leishmania major, UniProt E9AFX2).
T1 construct: made in house
The experiment can be described thus: HPTLC based LmjIPCS assay. The experiment is classed as biochemical. As to conditions: microsomes treated with 5 mM compound; NBD-C6-ceramide and PI. An excerpt: CF was originally selected from a screen for inhibitors of the sphingolipid synthase, (L. majIPCS) and to verify that this new analogue retained this profile we applied the same assays as used before. […] To support inhibition of the IPCS, the HPTLC biochemical assay described by Mina et al.[16] was employed. In this, using a microsomal preparation of the L. majIPCS, a fluorescent substrate NBD-C6-ceramide was combined with PI and the two drugs. Following the reaction, the product, NBD-C6-IPC, and residual starting material were separated via HPTLC and analysed by fluorescence spectroscopy.
°C and 5% CO2. Aliquots of resazurin solution (10 μL) were then added and the cells were incubated at 37 °C and 5% CO2 for 4 h. Cell-viability measurement was carried out using a fluorescence plate reader. […]
days. Infected ear thicknesses were measured once or twice a week with a caliper gauge, and the lesion sizes were expressed as the difference between the thickness of infected and non-infected ear. On day 41 animals were sacrificed and the fluorescence measured (485 - 528 nm) and parasite load quantified using a limiting dilution assay (LDA).
Data on lesion progression were analysed for statistical significance by using the Dunnett test as part of the one-way ANOVA (GraphPad Prism 8 software). […]
Product quantification was carried out using a fluorescence plate reader […]

T1 sequence (E9AFX2 whole entry): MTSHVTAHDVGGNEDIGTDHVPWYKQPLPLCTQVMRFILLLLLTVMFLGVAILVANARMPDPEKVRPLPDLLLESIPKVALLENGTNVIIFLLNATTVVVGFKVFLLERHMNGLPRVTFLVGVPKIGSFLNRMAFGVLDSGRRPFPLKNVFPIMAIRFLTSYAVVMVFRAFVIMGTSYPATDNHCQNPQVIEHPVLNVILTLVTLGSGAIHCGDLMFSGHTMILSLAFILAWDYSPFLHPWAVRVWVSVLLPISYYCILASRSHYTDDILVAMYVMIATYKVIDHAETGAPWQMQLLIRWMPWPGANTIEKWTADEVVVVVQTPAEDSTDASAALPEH

Turning to `C[C@H]1CCCN1CCCO[C@H](c1ccccc1)c1ccc(Cl)cc1` [38l], the concentration giving a half-maximal response (EC50) in experiment [1] worked out at 30 nM; in experiment [2], 41 nM. Further, the “NBD-C6-IPC product formation (HPTLC)” value on LmjIPCS is recorded as “No product was observed”.
